3 molecules from patent publication US20140378541A1, “Synthetic Epigallocatechin Gallate (EGCG) Analogs” (WAYNE STATE UNIVERSITY, priority 2011, published 2014) can be followed below.

Test [1] deals with MDA-MB-231 cells. Put plainly: Mammosphere formation assay. The test is classed as cell-based. Conditions: Homo sapiens, MDA-MB-231, 168 h, 7 days. How it is done: MDA-MB-231 cells were seeded in low attached 6-well plates (1000 cells/well) and treated with indicated concentrations of 23 and 30 for 7 days, followed by calculating numbers of mammosphere (A) and taking photos of mammosphere morphology (B). Metformin and EGCG were served as control. *, P<0.1; **, P<0.01. Columns, mean of three experiments; bars, SD.
Mammosphere formation assay was performed to assess the capacity of cancer stem cell self-renewal. Single cell suspensions of MDA-MB-231 cells were thoroughly suspended and plated on ultra low adherent wells of 6-well plates (Corning, Lowell, Mass.) at 1000 cells/well in 1.5 ml of sphere formation medium (1:1 DMEM/F12 medium supplemented with 50 units/ml penicillin, […] streptomycin, B-27 and N-2). One milliliter of sphere formation medium was added every 3-4 days. After 7 days of incubation with different concentrations of EGCG analogs 23, 30 or metformin, the formed spheres were collected by centrifugation at 300 g for 5 min and counted with an inverted phase-contrast Zeiss Axiovert 25 microscope.

Test [2] concerns AMPK signaling. Put plainly: AMPK activation, Western blot, MDA-MB-231 cells. The test is classed as cell-based, human. Conditions: 3 h; for AMPK activation (p-AMPK): 20 μM, metformin 10 mM as comparison; for AMPK activation (phosphor-AMPKα, phosphor-Raptor), dose dependence: indicated concentrations. The method, then:
(§1) In FIG. 9A, human breast cancer MDA-MB-231 cells were treated with 20 μM of EGCG, Pro-EGCG and EGCG analogs (compounds 5, 7, 23, 30 and 31), or 10 mM of metformin for 3 hrs. Cell lysates were analyzed by Western blot using antibodies of anti-AMPK, p-AMPK, PARP, p-EGFR, EGFR or β-actin. In FIG. 9B, human breast cancer MDA-MB-231 cells were treated with 20 μM of EGCG analogs 23 and 30, 10 nM of docetaxel alone, or combined treatment with compounds 23 and 30 plus docetaxel for 24 hrs. Cell lysates were analyzed by Western blot using antibodies of anti-AMPK, p-AMPK, PARP, p-EGFR, EGFR or β-actin. In FIG. 9C, cells were incubated in medium (0.1% BSA without FBS) containing 20 μM of 23, 30, 2.5 μM of Erlotinib (Eb) alone or the combinations as indicated for 24 hrs. Cell lyses were analyzed by Western blot using antibodies of anti-AMPK, p-AMPK, PARP, p-EGFR, EGFR or β-actin.
(§2) (A) EGCG analogs 23 and 30 inhibited breast cancer cell proliferation. MDA-MB-231 cells were treated with indicated concentrations of 23, 30 or metformin for 24 h, followed by a MTT assay. *, P<0.1; **, P<0.01. Columns, mean of three experiments; bars, SD. (B) EGCG analogs 23 and 30 activated AMPK at a dose-dependent manner, measured by elevated level of phosphor-AMPKα and its downstream proteins of phosphor-Raptor. […] MDA-MB-231 cells were treated with indicated concentrations of 23 or 30 for 3 h, followed by Western blot analysis with the indicated antibodies. The numbers underneath the Western results of p-AMPKα indicated normalized phosphor-AMPKα/β-actin ratios. […]
A whole cell extract was prepared from the treated cells as described by Landis-Piwowar et al. Cancer Res. (2007) 67, 4303, Chen et al. Cancer Res. (2007) 67, 1636, and Chen et al. Biochem. Pharm. (2005) 69, 1421. Cell extracts (30 μg) were separated by an SDS-PAGE gel and transferred to nitrocellulose membranes. The membrances were blotted by specific antibodies including anti-AMPK, p-AMPK, EGFR, p-EGFR (Cell Signaling Tech., Danvers, Mass.), PARP (Enzo Life Sciences, Plymouth Meeting, Pa.), actin (Santa Cruz Biotechnology, Santa Cruz, Calif.). The membranes were visualized by enhanced chemiluminescence, as described previously by Landis-Piwowar et al. Cancer Res. (2007) 67, 4303, Chen et al. Cancer Res. (2007) 67, 1636, and Chen et al. Biochem. Pharm. (2005) 69, 1421.
(§3) The Western blot analysis was performed as follows: A whole cell extract was prepared from the treated cells as described previously (Landis-Piwowar et al., Cancer research, 2007, 67: 4303-4310; Chen et al., Cancer research, 2007, 67: 1636-1644; Chen et al., Biochemical pharmacology, 2005, 69: 1421-1432). The cell extracts (30 μg) were then separated by an SDS-PAGE gel and transferred to nitrocellulose membranes. The membrances were blotted by specific antibodies including anti-AMPK, p-AMPK, EGFR, p-EGFR (Cell Signaling Tech. Danvers, Mass.), PARP (Enzo Life Sciences, Plymouth Meeting, Pa.), actin (Santa Cruz Biotechnology, Santa Cruz, Calif.). The membranes were visualized by enhanced chemiluminescence, as described previously (Landis-Piwowar et al., Cancer research, 2007, 67: 4303-4310; Chen et al., Cancer research, 2007, 67: 1636-1644; Chen et al., Biochemical pharmacology, 2005, 69: 1421-1432).
(§4) In FIG. 9A, human breast cancer MDA-MB-231 cells were treated with 20 μM of EGCG, Pro-EGCG and other EGCG analogs (compounds 5, 7, 23, 30 and 31), or 10 mM of metformin for 3 hrs. Cell lysates were analyzed by Western blot using antibodies of anti-AMPK, p-AMPK, PARP, p-EGFR, EGFR or β-actin. In FIG. 9B, human breast cancer MDA-MB-231 cells were treated with 20 μM of EGCG analogs 23 and 30, 10 nM of docetaxel alone, or combined treatment with compounds 23 and 30 plus docetaxel for 24 hrs.

Test [3] concerns mTOR pathway (phosphor-p70-S6K). Put plainly: mTOR pathway, phosphor-p70-S6K Western blot, MDA-MB-231 cells. The test is classed as cell-based, human. Conditions: 3 h. How it is done: as §2
(§5) The Western blot analysis was performed as follows: A whole cell extract was prepared from the treated cells as described previously (Landis-Piwowar et al., Cancer research, 2007, 67: 4303-4310; Chen et al., Cancer research, 2007, 67: 1636-1644; Chen et al., Biochemical pharmacology, 2005, 69: 1421-1432). The cell extracts (30 μg) were then separated by an SDS-PAGE gel and transferred to nitrocellulose membranes. […]

For test [4], the system named is MDA-MB-231 cells. Put plainly: Combination with docetaxel or erlotinib, Western blot (PARP cleavage, p-EGFR), MDA-MB-231 cells. The test is classed as cell-based, human. Conditions: 24 h; for sensitization to docetaxel (apoptotic cell death, PARP cleavage): 20 μM plus 10 nM docetaxel; for sensitization to erlotinib (p-EGFR reduction, PARP cleavage): 20 μM plus 2.5 μM erlotinib. How it is done:
as §1, §3, §4

The test system of test [5] is p21 protein. Put plainly: p21 protein level, Western blot, MDA-MB-231 cells. The test is classed as cell-based, human. Conditions: 3 h. The method, then: as §2, §5

Regarding `O=C(O[C@@H]1Cc2c(O)cc(O)cc2O[C@@H]1c1cc(O)c(O)c(O)c1)c1cc(O)c(O)c(O)c1` [Compound 1, (−)-Epigallocatechin gallate, reference compound], in test [1], the inhibition at 10 µM was 20.1% and the inhibition at 20 µM was 51.3%. Moreover, in test [2], the “AMPK activation (p-AMPK)” value is reported as “can activate AMPK signaling”.
Take `O=C(O[C@H]1Cc2ccccc2C[C@H]1OC(=O)c1cc(O)c(Br)c(O)c1)c1cc(O)c(Br)c(O)c1` [Compound 23]: the phosphor-p70-S6K level entry in test [3] was “decreased phosphor-p70-S6K”. Further, in test [4], the “sensitization to docetaxel (apoptotic cell death, PARP cleavage)” value is “sensitize these TNBC cells to Docetaxel” and the “sensitization to erlotinib (p-EGFR reduction, PARP cleavage)” value was “sensitize these TNBC cells to the EGFR inhibitor Erlotinib”. In test [1], this molecule yielded an inhibition at 10 µM of 45.1% and an inhibition at 20 µM of 66.7%. Further, the p21 protein level result in test [5] is on record as “increased levels of p21 protein”. For the same molecule, in test [2], the “AMPK activation (p-AMPK)” value is reported as “more potent AMPK activators even at lower concentration than metformin” and the “AMPK activation (phosphor-AMPKα, phosphor-Raptor), dose dependence” value was “activated AMPK in a dose-dependent manner”.
With `Nc1ccc(C(=O)O[C@H]2Cc3ccccc3C[C@H]2OC(=O)c2ccc(N)cc2)cc1` [Compound 30], the phosphor-p70-S6K level entry in test [3] is listed as “decreased phosphor-p70-S6K”. In addition, in test [4], the “sensitization to docetaxel (apoptotic cell death, PARP cleavage)” value is on record as “sensitize these TNBC cells to Docetaxel” and the “sensitization to erlotinib (p-EGFR reduction, PARP cleavage)” value is reported as “sensitize these TNBC cells to the EGFR inhibitor Erlotinib”. In test [1], this molecule gave an inhibition at 10 µM of 52.2% and an inhibition at 20 µM of 73.3%. Also, in test [5], the p21 protein level entry is reported as “increased levels of p21 protein”. For the same molecule, in test [2], the “AMPK activation (p-AMPK)” value is listed as “more potent AMPK activators even at lower concentration than metformin” and the “AMPK activation (phosphor-AMPKα, phosphor-Raptor), dose dependence” value is on record as “activated AMPK in a dose-dependent manner”.
